Experimental data as given in patent US20140079717A1, “Compositions and Methods to Prevent Cell Transformation and Cancer Metastasis” (CORNELL UNIVERSITY, priority 2011, published 2014).

Test: In vitro liposome fractionation assay
Format: binding
Conditions: 5 μg protein, 15 minute incubation, centrifugation, SDS-PAGE
Method: FIG. 51. Recombinant tTG can associate with lipid vesicles lacking any protein content. Synthetic liposomes were prepared by extrusion and then equal amounts of this preparation were combined with either 5 μg recombinant tTG (tTG WT) or 5 μg bovine serum albumin (BSA). After a 15 minute incubation, the liposomes were pelleted by centrifugation, and the resulting supernatant (Sup) and liposome (Pellet) fractions were resolved by SDS-PAGE. The gel was then stained with Quick Blue to detect the proteins. A lane containing recombinant tTG (Rec. tTG WT) was included as a standard.
To obtain the results depicted in FIG. 51, the following procedures were used. In vitro liposome fractionation assays—Synthetic liposomes were prepared from a lipid mixture containing 35% phosphatidylethanolamine, 25% phosphatidylserine, 5% phosphatidylinositol, and 35% cholesterol re-suspended in TBSM buffer (20 mM Tris, pH 7.5, 150 mM NaCl, and 2 mM MgCl2). The lipids were extruded through an 8 micron filter, pelleted by centrifugation at 13,000 rpm for 15 minutes, and re-suspended in TBSM buffer. Equal amounts of the lipid preparation were then incubated with either recombinant wild-type tTG or BSA for 15 minutes, followed by centrifugation at 13,000 rpm for 10 minutes at room temperature. […]

Substance: bovine serum albumin [BSA]
- protein pelleted with synthetic liposomes: only weakly pelleted
